In patent publication US7605175B2, “Inhibitors of cyclin-dependent kinases, compositions and uses related thereto” (GPC Biotech AG, priority 2001, dated 2009) one finds IC50 data, which are given here for 25 compounds.

As usually defined, the IC50 is the concentration that gives 50% inhibition.

Each structure is given as a SMILES string.

The target in one assay is T1, Cdk2/cyclin E (Homo sapiens, UniProt P24941).
T1 construct: made in house; host or cells: Sf9 insect cells
The assay is described as follows: Biochemical kinase assay Cdk2/cyclin E. The following applies: Table 6. The text has this:
(§1) Enzymes: Cdc2/cyclin B was obtained from commercial sources. Cdk2/his-cyclin Eshort was expressed in Sf9 cells. Cdk2/cyclin A, cdk4/cyclin D1, and cdk6/cyclin D2 were expressed in Sf9 cells. Protein kinase A (catalytic subunit, from bovine heart) and protein kinase C (mixed isozymes from rat brain) were obtained from commercial sources.
(§2) Substrates: Histone H1 was from commercial sources. GST-Rb is glutathione-S-trans-ferase fused to the N-terminal of residues 379-928 of the Rb protein.
(§3) Cdk2/cyclin E, Cdk2/cyclin A, Cdk4/cyclin D1, and Cdk6/cyclin D2 activity was determined using a glutathione-sepharose capture assay. The enzymes were expressed in Sf9 insect cells as heterodimers, and the substrate (GST-Rb) was glutathione-S-transferase fused to residues 379 to 928 of Rb retinoblastoma protein, expressed in E. coli. The assay solution contained 50 mM Tris.HCl, 10 mM MgCl2, 1 mM dithiothreitol, 50 μM adenosine triphosphate, 2 μCi [γ-^33P]adenosine triphosphate, 10% dimethylsulfoxide (from compounds), pH 7.5, 40 μg GST-Rb, and enzyme in a 100 μL volume. Compounds were added at various concentrations between 1 nM and 10 μM. The reaction was allowed to proceed for 15 min at 30° C. and was stopped by the addition of 70 μL of stop solution (237 mM disodium ethylene-diamine tetraacetate, 105 mM adenosine triphosphate, pH 8.0). The GST-Rb was captured by binding to glutathione-sepharose bead (Amersham) for 110 min, and the suspension was filtered through a glass fiber filter. After washing the retained beads five time with phosphate-buffered saline containing 0.3% (w/v) Tween-20, the amount of ^33P incorporated was determined by scintillation counting after adding 100 μL scintillant. Relative activity was determined by dividing the amount of radioactivity incorporated in the presence of compound by the amount of radioactivity incorporated in a control experiment containing DMSO alone but no compound. The background radioactivity, determined in an experiment containing 50 mM disodium ethylenediamine tetraacetate in place of compound, was subtracted from all results before calculations.

The target of the next assay is T2, Cdk4/cyclin D1 (Homo sapiens, UniProt P11802).
T2 construct: made in house; host or cells: Sf9 insect cells
Briefly: Biochemical kinase assay Cdk4/cyclin D1. To be noted: Table 6.
Text: as §1, §2, §3

A further assay concerns the target T3, Cdc2/cyclin B (Homo sapiens, UniProt P06493).
T3 construct: purchased
The assay is described as follows: Biochemical kinase assay Cdc2/cyclin B. The following applies: Table 6.
Text: as §1, §2
Assays: Cdc2/cyclinB activity was determined by measuring incorporation of radio-activity from adenosine [γ-^32P]triphosphate into Histone H1 using a TCA precipitation assay. Cdc2/cyclin B kinase and Histone H1 were obtained from commercial sources. The final assay solution contained 50 mM Tris.HCl, 10 mM MgCl2, 1 mM dithiothreitol, 50 μM adenosine triphosphate, 2 μCi ^32P, 10% dimethylsulfoxide (from compounds), pH 7.5, 20 μg Histone H1, 6 U enzyme in a 50 μL volume. Compounds were added at various concentrations between 1 nM and 10 μM. The reaction was started with the addition of enzyme, allowed to proceed for 20 min at 30° C., and stopped by the addition of 20 μL of stop solution (237 mM disodium ethylenediamine tetraacetate, 105 mM adenosine triphosphate, pH 8.0). The protein was precipitated by the addition of 35 μL 70% (w/v) trichloroacetic acid, and the precipitate was captured on a 96-well glass fiber filter plate (Millipore, Inc.), which had been wet with 25% (w/v) trichloroacetic acid. The filter was washed ten times with 25% (w/v) trichloroacetic acid, and the amount of incorporated ^32P was determined by scintillation counting after adding 100 μL scintillant (Microscint 20, Packard Instruments). Relative activity was determined by dividing the amount of radioactivity incorporated in the presence of compound by the amount of radioactivity incorporated in a control experiment containing DMSO alone but no compound. The background radioactivity, determined in an experiment containing 50 mM EDTA in place of compound, was subtracted from all results before calculations.

The test system of a further assay is HCT-116 cells. Briefly: Calcein AM viability assay, HCT-116. The following applies: Homo sapiens, HCT-116, read-out: HCT-116 viability IC50. Format: cell-based. How it is done: The potency of Cdk inhibitors, as measured by loss of cellular viability, was determined with the Calcein AM assay (Molecular Probes). Calcein AM is a substrate of intracellular esterases, which is cleaved only in viable cells to generate a fluorescent product that can be quantified with a fluorescent plate reader. The fluorescent signal is proportional to the number of viable cells, and thus loss of signal in response to the exposure of cells to Cdk inhibitors correlates with a loss of viability. This assay can distinguish cell cycle arrest, in which cells may still by viable, from loss of viability and is thus well suited for the evaluation of Cdk inhibitors. A compound that is a potent cytotoxic, may cause significant loss of cell viability in such assay.
Cellular IC50's were determined in the human colorectal carcinoma cell line, HCT-116, and the normal human fibroblast, IMR90. Protein adjusted IC50's were also determined in HCT-116.
HCT-116 or IMR90 cells were recovered from sub-confluent plates by trypsinization and 1,000 or 4,000 cells, respectively, were plated in 24-well dishes and incubated overnight at 37° C., 5% CO2. HCT-116 cells were cultured in RPMI-1640, 10% FCS, and IMR90 cells were cultured in Minimum Essential Medium-alpha, 10% FCS. After overnight incubation to allow adherence, the media was aspirated from each well and replaced with media containing a test compound at a concentration from 0 to 250 nM, spanning a total of 7 doses. The plates were returned to the incubator and cultured for an additional 72 hours (3 days). […] After 72-hours incubation with the test compound, the cells were washed twice with 1×PBS, taking special care to remove all residual buffer.
A 5 μM Calcein AM solution was prepared by dissolving a […] aliquot of Calcein (Molecular Probes catalog # C3100) in 50 μl DMSO. After the Calcein had completely dissolved (10 minutes at room temperature), it was diluted into 10 ml PBS. Calcein/PBS (0.5 ml) was added to each well. The plates were incubated for 75 minutes at 37° C. (protected from light) and the fluorescent signal was read on a fluorescent plate reader (excitation 485/20 and emission 530/25).

T2 sequence (P11802 whole entry, species assumed): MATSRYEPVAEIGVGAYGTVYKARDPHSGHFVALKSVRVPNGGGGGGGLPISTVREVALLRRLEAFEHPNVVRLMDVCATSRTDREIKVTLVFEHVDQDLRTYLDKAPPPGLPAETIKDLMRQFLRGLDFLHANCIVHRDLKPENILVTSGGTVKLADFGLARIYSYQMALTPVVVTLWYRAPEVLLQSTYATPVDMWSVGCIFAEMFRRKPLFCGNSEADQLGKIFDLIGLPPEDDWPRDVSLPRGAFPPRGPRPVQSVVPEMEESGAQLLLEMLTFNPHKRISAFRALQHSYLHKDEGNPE
T2 sequence (P24385 whole entry partner, species assumed): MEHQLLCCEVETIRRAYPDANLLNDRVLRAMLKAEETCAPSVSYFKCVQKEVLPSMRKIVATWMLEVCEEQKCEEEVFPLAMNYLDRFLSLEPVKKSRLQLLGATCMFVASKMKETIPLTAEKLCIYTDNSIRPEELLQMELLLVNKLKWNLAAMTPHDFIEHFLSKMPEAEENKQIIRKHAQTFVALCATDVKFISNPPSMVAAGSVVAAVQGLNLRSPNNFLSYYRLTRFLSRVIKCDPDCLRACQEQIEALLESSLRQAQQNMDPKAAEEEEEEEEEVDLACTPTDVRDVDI
T3 sequence (P06493 whole entry, species assumed): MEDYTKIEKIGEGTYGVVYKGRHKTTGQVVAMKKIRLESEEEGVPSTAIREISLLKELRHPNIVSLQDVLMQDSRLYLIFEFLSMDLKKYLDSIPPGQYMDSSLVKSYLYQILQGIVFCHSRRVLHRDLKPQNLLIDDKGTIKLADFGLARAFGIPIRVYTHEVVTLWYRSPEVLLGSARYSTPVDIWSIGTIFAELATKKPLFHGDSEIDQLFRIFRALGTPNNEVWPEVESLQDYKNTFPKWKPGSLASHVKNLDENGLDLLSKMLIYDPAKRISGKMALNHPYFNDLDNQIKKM
T3 sequence (P14635 whole entry partner, species assumed): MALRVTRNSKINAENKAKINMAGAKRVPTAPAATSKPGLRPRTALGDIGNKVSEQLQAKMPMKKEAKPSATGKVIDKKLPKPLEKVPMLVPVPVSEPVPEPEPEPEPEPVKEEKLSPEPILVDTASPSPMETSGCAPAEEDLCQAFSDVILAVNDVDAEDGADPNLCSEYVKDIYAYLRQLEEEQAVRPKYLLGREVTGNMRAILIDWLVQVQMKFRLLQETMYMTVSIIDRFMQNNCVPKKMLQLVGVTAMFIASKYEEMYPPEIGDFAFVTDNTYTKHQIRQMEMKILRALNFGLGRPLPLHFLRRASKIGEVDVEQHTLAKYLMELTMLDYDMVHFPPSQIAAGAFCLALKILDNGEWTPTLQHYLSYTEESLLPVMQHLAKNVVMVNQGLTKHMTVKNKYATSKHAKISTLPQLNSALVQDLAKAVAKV

As for `Cc1cc(-c2[nH]nc3c2C(=O)c2c(NC(=O)NN4CCOCC4)cccc2-3)ccc1OCCN1CCN(C(C)C)CC1` [Compound A24], the half-inhibitory concentration (IC50) against Cdk2/cyclin E is less than 10 nM; at Cdk4/cyclin D1, less than 100 nM; against Cdc2/cyclin B it was less than 10 nM.

Consider `Cc1cc(-c2[nH]nc3c2C(=O)c2c(NC(=O)NN4CCOCC4)cccc2-3)ccc1OCCN1CCCC1` [Compound A25], for which the IC50 against Cdk2/cyclin E, at Cdk4/cyclin D1 and on Cdc2/cyclin B was less than 100 nM in each case.

Turning to `CCOC(=O)CN1CCN(NC(=O)Nc2cccc3c2C(=O)c2c-3n[nH]c2-c2ccc(OCCN3CCCC3)cc2)CC1` [Compound A26], the half-inhibitory concentration (IC50) at Cdk2/cyclin E, against Cdk4/cyclin D1 and at Cdc2/cyclin B was less than 100 nM in each case.

As to `O=C(Nc1cccc2c1C(=O)c1c(-c3ccc(OCCN4CCOCC4)c(F)c3)n[nH]c1-2)NN1CCOCC1` [Compound A27], the IC50 against Cdk2/cyclin E is less than 100 nM; on Cdk4/cyclin D1, less than 100 nM; on Cdc2/cyclin B, less than 10 nM.

Consider `O=C(Nc1cccc2c1C(=O)c1c(-c3ccc(OCCN4CCOCC4)cc3Cl)n[nH]c1-2)NN1CCOCC1` [Compound A28], for which the IC50 was less than 100 nM on Cdk2/cyclin E, less than 1000 nM on Cdk4/cyclin D1 and less than 100 nM against Cdc2/cyclin B.

On to `Cc1cc(OCCN2CCCC2)ccc1-c1[nH]nc2c1C(=O)c1c(NC(=O)NN3CCOCC3)cccc1-2` [Compound A29], for which the IC50 at Cdk2/cyclin E is less than 10 nM; against Cdk4/cyclin D1, less than 100 nM; on Cdc2/cyclin B, less than 100 nM.

As for `COc1cc(-c2[nH]nc3c2C(=O)c2c(NC(=O)NN4CCOCC4)cccc2-3)ccc1OCCN1CCCC1` [Compound A31], the IC50 on Cdk2/cyclin E, on Cdk4/cyclin D1 and against Cdc2/cyclin B was less than 100 nM throughout.

As for `CC(C)C(N)C(=O)OCCN1CCN(NC(=O)Nc2cccc3c2C(=O)c2c-3n[nH]c2-c2ccc(OCCN3CCCC3)cc2)CC1` (centres unmarked) [Compound A33], the IC50 against Cdk2/cyclin E, on Cdk4/cyclin D1 and against Cdc2/cyclin B was less than 100 nM throughout.

Turning to `CN(C)C(=O)COc1ccc(-c2[nH]nc3c2C(=O)c2c(NC(=O)NN4CCOCC4)cccc2-3)cc1` [Compound A34], the IC50 against Cdk2/cyclin E is less than 10 nM; at Cdk4/cyclin D1, less than 100 nM; on Cdc2/cyclin B, less than 100 nM.

As for `Cc1noc(COc2ccc(-c3[nH]nc4c3C(=O)c3c(NC(=O)NN5CCOCC5)cccc3-4)cc2)n1` [Compound A35], the figures for the IC50 at Cdk2/cyclin E, on Cdk4/cyclin D1 and against Cdc2/cyclin B were less than 100 nM, less than 100 nM and less than 10 nM, respectively.

For `O=C(Nc1cccc2c1C(=O)c1c-2n[nH]c1-c1ccc(OCC(=O)N2CCOCC2)cc1)NN1CCOCC1` [Compound A36], the IC50 on Cdk2/cyclin E, against Cdk4/cyclin D1 and against Cdc2/cyclin B was less than 100 nM in each case.

`CC(C)c1nn(-c2c(Cl)cc(Cl)cc2Cl)c2nc(Cc3ccc(NS(=O)(=O)CCCN4CCCC4)cc3)[nH]c(=O)c12` [Compound A38]: the IC50 against Cdk2/cyclin E is less than 100 nM; on Cdk4/cyclin D1, less than 1000 nM; against Cdc2/cyclin B it was less than 1000 nM.

On to `CC(C)c1nn(-c2c(Cl)cc(Cl)cc2Cl)c2nc(Cc3ccc(NS(=O)(=O)CCCN4CCN(C(C)C)CC4)cc3)[nH]c(=O)c12` [Compound A39], for which the values for the IC50 on Cdk2/cyclin E, at Cdk4/cyclin D1 and on Cdc2/cyclin B were less than 100 nM, less than 1000 nM and less than 1000 nM, respectively.

With `CC(C)OC(=O)CN1CCN(NC(=O)Nc2cccc3c2C(=O)c2c-3n[nH]c2-c2ccc(OCCN3CCCC3)cc2)CC1` [Compound A40], the IC50 against Cdk2/cyclin E, against Cdk4/cyclin D1 and against Cdc2/cyclin B was less than 100 nM throughout.

Turning to `CN(C)C(=O)CN1CCN(NC(=O)Nc2cccc3c2C(=O)c2c-3n[nH]c2-c2ccc(OCCN3CCCC3)cc2)CC1` [Compound A41], the results for the IC50 on Cdk2/cyclin E, at Cdk4/cyclin D1 and on Cdc2/cyclin B were less than 100 nM, less than 100 nM and less than 1000 nM, respectively.

For the compound `CN1CCN(NC(=O)Nc2cccc3c2C(=O)c2c-3n[nH]c2-c2ccc(OCC(=O)N3CCCC3)cc2)CC1` [Compound A44], the values for the half-inhibitory concentration (IC50) on Cdk2/cyclin E, against Cdk4/cyclin D1 and against Cdc2/cyclin B were less than 100 nM, less than 100 nM and less than 10 nM, respectively.

Take `Cc1noc(COc2ccc(-c3[nH]nc4c3C(=O)c3c(NC(=O)NN5CCN(C)CC5)cccc3-4)cc2)n1` [Compound A45]: the values for the IC50 at Cdk2/cyclin E, at Cdk4/cyclin D1 and against Cdc2/cyclin B were less than 100 nM, less than 100 nM and less than 10 nM, respectively.

`O=C(Nc1cccc2c1C(=O)c1c-2n[nH]c1-c1ccc(OCC(=O)N2CCCC2)cc1)NN1CCOCC1` [Compound A46]: the IC50 was less than 100 nM at Cdk2/cyclin E, less than 1000 nM against Cdk4/cyclin D1 and less than 10 nM against Cdc2/cyclin B.

Consider `O=C(Nc1cccc2c1C(=O)c1c-2n[nH]c1-c1ccc(S(=O)(=O)N2CCNCC2)cc1)NN1CCOCC1` [Compound A56], for which the IC50 is less than 100 nM against Cdk2/cyclin E, less than 1000 nM against Cdk4/cyclin D1 and less than 100 nM on Cdc2/cyclin B.

Take `CC(C)N1CCN(S(=O)(=O)c2ccc(-c3[nH]nc4c3C(=O)c3c(NC(=O)NN5CCOCC5)cccc3-4)cc2)CC1` [Compound A57]: the IC50 at Cdk2/cyclin E was less than 10 nM; against Cdk4/cyclin D1, less than 100 nM; against Cdc2/cyclin B it was less than 10 nM.

For `Cc1nc(Cc2nc3c(c(C(C)C)nn3-c3c(Cl)cccc3Cl)c(=O)[nH]2)cs1` [Compound A58], the IC50 was less than 10 nM against Cdk2/cyclin E, less than 10000 nM against Cdk4/cyclin D1 and less than 10000 nM against Cdc2/cyclin B.

Turning to `CC(C)c1nn(-c2c(Cl)cccc2Cl)c2nc(Cc3ccc(OCCO)cc3)[nH]c(=O)c12` [Compound A59], the IC50 on Cdk2/cyclin E is less than 100 nM; on Cdk4/cyclin D1, less than 1000 nM; at Cdc2/cyclin B it was less than 100 nM.

Turning to `CC(C)c1nn(-c2c(Cl)cccc2Cl)c2nc(Cc3ccc(OCCOC(=O)[C@@H](N)C(C)C)cc3)[nH]c(=O)c12` [Compound A60], the IC50 in the assay on HCT-116 cells and at Cdk2/cyclin E was less than 100 nM throughout.

On to `CCOC(=O)COc1ccc(-c2[nH]nc3c2C(=O)c2c(NC(=O)NN4CCOCC4)cccc2-3)cc1` [Compound A65], for which the results for the IC50 against Cdk2/cyclin E, against Cdk4/cyclin D1 and on Cdc2/cyclin B were less than 100 nM, less than 100 nM and less than 10 nM, respectively.

Turning to `O=C(O)COc1ccc(-c2n[nH]c3c2C(=O)c2c(NC(=O)NN4CCOCC4)cccc2-3)cc1` [Compound A68], the IC50 against Cdk2/cyclin E was less than 10 nM; against Cdk4/cyclin D1 it was less than 100 nM; on Cdc2/cyclin B, less than 100 nM.
